# Experimental data: PMC5218480 (PLoS ONE, 2017)
# Tested on: MV-4-11 cells
# Assay: Gene expression microarray analysis (Affymetrix PrimeView) and GSEA
# Type: cell-based, human
# Design: RFU PODN (11730768_x_at) / Fold change /veh PODN (11730768_x_at) / RFU LINC00158 (11744669_a_at) / Fold change /veh LINC00158 (11744669_a_at) / RFU DUSP10 (11751237_a_at) / Fold change /veh DUSP10 (11751237_a_at) / RFU ID3 (11757404_x_at) / Fold change /veh ID3 (11757404_x_at) / RFU PLEKHG5 (11737974_s_at) / Fold change /veh PLEKHG5 (11737974_s_at) / RFU LRRC4B (11730491_at) / Fold change /veh LRRC4B (11730491_at) / RFU GIMAP4 (11747438_a_at) / Fold change /veh GIMAP4 (11747438_a_at) / RFU KRT8 (11758183_x_at) / Fold change /veh KRT8 (11758183_x_at) / RFU CNN1 (11734310_a_at) / Fold change /veh CNN1 (11734310_a_at) / RFU VPS37D (11726825_at) / Fold change /veh VPS37D (11726825_at) / RFU C10orf10 (11716522_x_at) / Fold change /veh C10orf10 (11716522_x_at) / RFU KIR2DL2 /// KIR2DL4 /// KIR2DL5A /// KIR2DL5B /// KIR2DS1 /// KIR2DS2 /// KIR2DS3 /// KIR2DS4 /// KIR3DL3 /// KIR3DL3 /// KIR3DS1 (11738374_at) / Fold change /veh KIR2DL2 /// KIR2DL4 /// KIR2DL5A /// KIR2DL5B /// KIR2DS1 /// KIR2DS2 /// KIR2DS3 /// KIR2DS4 /// KIR3DL3 /// KIR3DL3 /// KIR3DS1 (11738374_at) / RFU C1QL1 (11718748_at) / Fold change /veh C1QL1 (11718748_at) / RFU TMPRSS4 (11747572_a_at) / Fold change /veh TMPRSS4 (11747572_a_at) / RFU HAMP (11756126_x_at) / Fold change /veh HAMP (11756126_x_at) / RFU RNFT2 (11725882_a_at) / Fold change /veh RNFT2 (11725882_a_at) / RFU NR4A2 (11747474_a_at) / Fold change /veh NR4A2 (11747474_a_at) / RFU ABCC12 (11746883_a_at) / Fold change /veh ABCC12 (11746883_a_at) / RFU TMEM136 (11760407_x_at) / Fold change /veh TMEM136 (11760407_x_at) / RFU CLDN22 /// WWC2 (11732394_at) / Fold change /veh CLDN22 /// WWC2 (11732394_at) / RFU HLA-DPB1 (11760878_x_at) / Fold change /veh HLA-DPB1 (11760878_x_at) / RFU SPINT1 (11716480_a_at) / Fold change /veh SPINT1 (11716480_a_at) / RFU GAP43 (11754022_s_at) / Fold change /veh GAP43 (11754022_s_at) / RFU A4GNT (11735810_at) / Fold change /veh A4GNT (11735810_at) / RFU PRB3 (11715151_x_at) / Fold change /veh PRB3 (11715151_x_at) / RFU TUBB4B (11761932_at) / Fold change /veh TUBB4B (11761932_at) / RFU CAPN14 (11732068_a_at) / Fold change /veh CAPN14 (11732068_a_at) / RFU TMCC2 (11721928_a_at) / Fold change /veh TMCC2 (11721928_a_at) / RFU IRGQ (11745062_a_at) / Fold change /veh IRGQ (11745062_a_at) / RFU FAM174B (11720279_a_at) / Fold change /veh FAM174B (11720279_a_at) / RFU TMPRSS4 (11748680_a_at) / Fold change /veh TMPRSS4 (11748680_a_at) / RFU FAM212B (11763350_a_at) / Fold change /veh FAM212B (11763350_a_at) / RFU PLEKHG5 (11743358_a_at) / Fold change /veh PLEKHG5 (11743358_a_at) / RFU ZSCAN30 (11745921_a_at) / Fold change /veh ZSCAN30 (11745921_a_at) / RFU CMKLR1 (11741424_a_at) / Fold change /veh CMKLR1 (11741424_a_at) / RFU LOC101060620 /// MAPK8IP1 (11723275_at) / Fold change /veh LOC101060620 /// MAPK8IP1 (11723275_at) / RFU SPTSSB (11747773_x_at) / Fold change /veh SPTSSB (11747773_x_at) / RFU PRSS12 (11739890_at) / Fold change /veh PRSS12 (11739890_at) / RFU BIN1 (11741810_x_at) / Fold change /veh BIN1 (11741810_x_at) / RFU WNT11 (11732464_a_at) / Fold change /veh WNT11 (11732464_a_at) / RFU C10orf10 (11716521_a_at) / Fold change /veh C10orf10 (11716521_a_at) / RFU C5orf56 (11738089_at) / Fold change /veh C5orf56 (11738089_at) / RFU CYB561 (11721691_x_at) / Fold change /veh CYB561 (11721691_x_at) / RFU ANKRD19P (11752326_a_at) / Fold change /veh ANKRD19P (11752326_a_at) / RFU OR2T12 /// OR2T33 /// OR2T8 (11738714_s_at) / Fold change /veh OR2T12 /// OR2T33 /// OR2T8 (11738714_s_at) / RFU VCAN (11748164_a_at) / Fold change /veh VCAN (11748164_a_at) / RFU JSRP1 (11732532_at) / Fold change /veh JSRP1 (11732532_at) / RFU KRTAP10-11 (11738290_x_at) / Fold change /veh KRTAP10-11 (11738290_x_at) / RFU MYO3A (11730013_a_at) / Fold change /veh MYO3A (11730013_a_at) / RFU EBF3 (11725865_a_at) / Fold change /veh EBF3 (11725865_a_at) / RFU CAMK2N1 (11719241_x_at) / Fold change /veh CAMK2N1 (11719241_x_at) / RFU C5orf56 (11738088_a_at) / Fold change /veh C5orf56 (11738088_a_at) / RFU OLFML3 (11715873_a_at) / Fold change /veh OLFML3 (11715873_a_at) / RFU LOC100653217 /// NTM (11731650_a_at) / Fold change /veh LOC100653217 /// NTM (11731650_a_at) / RFU MAPK11 (11762145_a_at) / Fold change /veh MAPK11 (11762145_a_at) / RFU FIZ1 (11724087_x_at) / Fold change /veh FIZ1 (11724087_x_at) / RFU OASL (11726364_x_at) / Fold change /veh OASL (11726364_x_at) / RFU SOX15 (11748057_x_at) / Fold change /veh SOX15 (11748057_x_at) / RFU CD79A (11719716_a_at) / Fold change /veh CD79A (11719716_a_at) / RFU HIST1H1D (11736915_at) / Fold change /veh HIST1H1D (11736915_at) / RFU CASKIN2 (11723855_a_at) / Fold change /veh CASKIN2 (11723855_a_at) / RFU LOC730098 (11760151_x_at) / Fold change /veh LOC730098 (11760151_x_at) / RFU OR4N2 (11742367_at) / Fold change /veh OR4N2 (11742367_at) / RFU PRRT2 (11749266_a_at) / Fold change /veh PRRT2 (11749266_a_at) / RFU SNX32 (11753110_a_at) / Fold change /veh SNX32 (11753110_a_at) / RFU CDHR5 (11726645_a_at) / Fold change /veh CDHR5 (11726645_a_at) / RFU RCAN1 (11760418_a_at) / Fold change /veh RCAN1 (11760418_a_at) / RFU FAM167A (11723789_a_at) / Fold change /veh FAM167A (11723789_a_at) / RFU FAM26E (11764081_at) / Fold change /veh FAM26E (11764081_at) / RFU ISYNA1 (11749810_s_at) / Fold change /veh ISYNA1 (11749810_s_at) / RFU ACY1 (11761880_at) / Fold change /veh ACY1 (11761880_at) / RFU 11764098_at / Fold change /veh 11764098_at / RFU SAMD14 (11745864_x_at) / Fold change /veh SAMD14 (11745864_x_at) / RFU NPB (11741838_a_at) / Fold change /veh NPB (11741838_a_at) / RFU TMPRSS6 (11731388_a_at) / Fold change /veh TMPRSS6 (11731388_a_at) / RFU KRTAP10-2 (11738614_at) / Fold change /veh KRTAP10-2 (11738614_at) / RFU ARHGAP8 /// PRR5-ARHGAP8 (11727945_x_at) / Fold change /veh ARHGAP8 /// PRR5-ARHGAP8 (11727945_x_at) / RFU KRTAP5-7 /// NADSYN1 (11734609_at) / Fold change /veh KRTAP5-7 /// NADSYN1 (11734609_at) / RFU RASL12 (11751679_a_at) / Fold change /veh RASL12 (11751679_a_at) / RFU CDKN2B (11736163_a_at) / Fold change /veh CDKN2B (11736163_a_at) / RFU PRF1 (11729649_at) / Fold change /veh PRF1 (11729649_at) / RFU, ZNF638 /// ZNF638-IT1 / Fold change vs veh, ZNF638 /// ZNF638-IT1 / RFU, PANK3 / Fold change vs veh, PANK3 / RFU, SH3YL1 / Fold change vs veh, SH3YL1 / RFU, ZEB2 / Fold change vs veh, ZEB2 / RFU, NRIP1 / Fold change vs veh, NRIP1 / RFU, PTTG1IP / Fold change vs veh, PTTG1IP / RFU, CAPN2 / Fold change vs veh, CAPN2 / RFU, MED14 / Fold change vs veh, MED14 / RFU, SNORA58 / Fold change vs veh, SNORA58 / RFU, C1orf63 / Fold change vs veh, C1orf63 / RFU, LRRFIP1 / Fold change vs veh, LRRFIP1 / RFU, NDUFAF7 / Fold change vs veh, NDUFAF7 / RFU, SLC12A2 / Fold change vs veh, SLC12A2 / RFU, IBTK / Fold change vs veh, IBTK / RFU, ESF1 / Fold change vs veh, ESF1 / Fold change vs veh, TMEM50B / RFU, TAOK1 / Fold change vs veh, TAOK1 / RFU, ACBD3 / Fold change vs veh, ACBD3 / RFU, TMA16 / Fold change vs veh, TMA16 / RFU, RWDD3 / Fold change vs veh, RWDD3 / RFU, BCAT1 / Fold change vs veh, BCAT1 / RFU, EDEM3 / Fold change vs veh, EDEM3 / RFU, TMEM33 / Fold change vs veh, TMEM33 / RFU, WDR75 / Fold change vs veh, WDR75 / RFU, AHCTF1 / Fold change vs veh, AHCTF1 / RFU, TFRC / Fold change vs veh, TFRC / RFU, ZDHHC17 / Fold change vs veh, ZDHHC17 / RFU, NOM1 / Fold change vs veh, NOM1 / RFU, ARL8B / Fold change vs veh, ARL8B / RFU, ZBTB11 / Fold change vs veh, ZBTB11 / RFU, TAMM41 / Fold change vs veh, TAMM41 / RFU, KIAA1704 /// LOC100996395 / Fold change vs veh, KIAA1704 /// LOC100996395 / RFU, ING1 / Fold change vs veh, ING1 / RFU, TRMT61B / Fold change vs veh, TRMT61B / RFU, FUBP3 / Fold change vs veh, FUBP3 / RFU, TP53 / Fold change vs veh, TP53 / RFU, TNKS2 / Fold change vs veh, TNKS2 / RFU, ZFP14 / Fold change vs veh, ZFP14 / RFU, ACTR2 / Fold change vs veh, ACTR2 / RFU, PPP3R1 / Fold change vs veh, PPP3R1 / RFU, PIK3R1 / Fold change vs veh, PIK3R1 / RFU, HNRNPA1 / Fold change vs veh, HNRNPA1 / RFU, RNF170 / Fold change vs veh, RNF170 / RFU, ZNF28 / Fold change vs veh, ZNF28 / RFU, RNGTT / Fold change vs veh, RNGTT / RFU, OGT / Fold change vs veh, OGT / RFU, BRD1 / Fold change vs veh, BRD1 / RFU, MARS / Fold change vs veh, MARS / RFU, ZNF655 / Fold change vs veh, ZNF655 / RFU, FAHD1 / Fold change vs veh, FAHD1 / RFU, BDP1 / Fold change vs veh, BDP1 / RFU, LRRCC1 / Fold change vs veh, LRRCC1 / RFU, ARID1A / Fold change vs veh, ARID1A / RFU, ZNF146 / Fold change vs veh, ZNF146 / RFU, ZNF330 / Fold change vs veh, ZNF330 / RFU, GPN3 / Fold change vs veh, GPN3 / RFU, C9orf123 / Fold change vs veh, C9orf123 / RFU, N4BP2L2 / Fold change vs veh, N4BP2L2 / RFU, ARFIP1 / Fold change vs veh, ARFIP1 / RFU, FAM179B / Fold change vs veh, FAM179B / RFU, BCL10 / Fold change vs veh, BCL10 / RFU, UHRF1BP1L / Fold change vs veh, UHRF1BP1L / RFU, BET1 / Fold change vs veh, BET1 / RFU, CNOT2 / Fold change vs veh, CNOT2 / RFU, ZNF268 / Fold change vs veh, ZNF268 / Fold change vs veh, ZNF507 / RFU, DGCR2 / Fold change vs veh, DGCR2 / RFU, WDSUB1 / Fold change vs veh, WDSUB1 / Fold change vs veh, HSP90B1 /// MIR3652 / RFU, ADSS / Fold change vs veh, ADSS / RFU, GK / Fold change vs veh, GK / RFU, ZNF148 / Fold change vs veh, ZNF148 / RFU, TAF9 / Fold change vs veh, TAF9 / RFU, SLC1A5 / Fold change vs veh, SLC1A5 / RFU, SLMO2 / Fold change vs veh, SLMO2 / RFU, ABCC4 / Fold change vs veh, ABCC4 / RFU, LOC101060439 /// RAP1B / Fold change vs veh, LOC101060439 /// RAP1B / RFU, RFX7 / Fold change vs veh, RFX7 / RFU, GTPBP10 / Fold change vs veh, GTPBP10 / RFU, CNEP1R1 / Fold change vs veh, CNEP1R1 / RFU, BIVM-ERCC5 /// ERCC5 / Fold change vs veh, BIVM-ERCC5 /// ERCC5 / RFU, ILF3 / Fold change vs veh, ILF3 / RFU 11762660_at / Fold change /veh 11762660_at / RFU VCAN (11757783_s_at) / Fold change /veh VCAN (11757783_s_at) / RFU DDX43 (11728927_at) / Fold change /veh DDX43 (11728927_at) / RFU KRT8 (11758188_x_at) / Fold change /veh KRT8 (11758188_x_at) / RFU NKD1 (11759106_at) / Fold change /veh NKD1 (11759106_at) / RFU SRD5A1 (11742802_a_at) / Fold change /veh SRD5A1 (11742802_a_at) / RFU TPSAB1 /// TPSB2 (11721975_s_at) / Fold change /veh TPSAB1 /// TPSB2 (11721975_s_at) / RFU GSTM3 (11746129_a_at) / Fold change /veh GSTM3 (11746129_a_at) / RFU IL23R (11737362_x_at) / Fold change /veh IL23R (11737362_x_at) / RFU TMEM51 (11727254_a_at) / Fold change /veh TMEM51 (11727254_a_at) / RFU PIWIL2 (11732686_x_at) / Fold change /veh PIWIL2 (11732686_x_at) / RFU ORM1 (11744905_x_at) / Fold change /veh ORM1 (11744905_x_at) / RFU CCDC152 (11743942_at) / Fold change /veh CCDC152 (11743942_at) / RFU ECM1 (11717891_a_at) / Fold change /veh ECM1 (11717891_a_at) / RFU IL23R (11748794_a_at) / Fold change /veh IL23R (11748794_a_at) / RFU TNFAIP8L3 (11732012_x_at) / Fold change /veh TNFAIP8L3 (11732012_x_at) / RFU MBOAT4 (11741988_at) / Fold change /veh MBOAT4 (11741988_at) / RFU 11764193_at / Fold change /veh 11764193_at / RFU TMEM53 (11763286_at) / Fold change /veh TMEM53 (11763286_at) / RFU MAGEB2 (11727129_at) / Fold change /veh MAGEB2 (11727129_at) / RFU TMEM200A (11744735_a_at) / Fold change /veh TMEM200A (11744735_a_at) / RFU CCDC152 (11751479_a_at) / Fold change /veh CCDC152 (11751479_a_at) / RFU FAM211A (11726209_a_at) / Fold change /veh FAM211A (11726209_a_at) / RFU RGS16 (11746705_a_at) / Fold change /veh RGS16 (11746705_a_at) / RFU VCAN (11755009_s_at) / Fold change /veh VCAN (11755009_s_at) / RFU RHOB (11743442_s_at) / Fold change /veh RHOB (11743442_s_at) / RFU RGS16 (11720943_a_at) / Fold change /veh RGS16 (11720943_a_at) / RFU RGS16 (11720944_at) / Fold change /veh RGS16 (11720944_at) / RFU, VPS4B / Fold change vs veh, VPS4B / RFU, CREB1 / Fold change vs veh, CREB1 / RFU, DNAJC13 / Fold change vs veh, DNAJC13 / RFU, GNAQ / Fold change vs veh, GNAQ / RFU, CDK5R1 / Fold change vs veh, CDK5R1 / RFU, ZRANB3 / Fold change vs veh, ZRANB3 / RFU, CUL4A / Fold change vs veh, CUL4A / RFU, CCNY / Fold change vs veh, CCNY / RFU, UFL1 / Fold change vs veh, UFL1 / RFU, COG3 / Fold change vs veh, COG3 / RFU, DIAPH2 / Fold change vs veh, DIAPH2 / RFU, SKA2 / Fold change vs veh, SKA2 / RFU, AFF3 / Fold change vs veh, AFF3 / RFU, LMF1 / Fold change vs veh, LMF1 / RFU, IPO11 / Fold change vs veh, IPO11 / RFU, DFFB / Fold change vs veh, DFFB / RFU, FOXP1 / Fold change vs veh, FOXP1 / RFU, CARD8 / Fold change vs veh, CARD8 / RFU, STRN3 / Fold change vs veh, STRN3 / RFU, ADK / Fold change vs veh, ADK / RFU, RASSF2 / Fold change vs veh, RASSF2 / RFU, WIPF1 / Fold change vs veh, WIPF1 / RFU, LARP1B / Fold change vs veh, LARP1B / RFU, RASA1 / Fold change vs veh, RASA1 / RFU, RB1 / Fold change vs veh, RB1 / RFU, PPFIA1 / Fold change vs veh, PPFIA1 / RFU, MAT2A / Fold change vs veh, MAT2A / RFU, CCT5 / Fold change vs veh, CCT5 / RFU, WDR92 / Fold change vs veh, WDR92 / RFU, CUX1 / Fold change vs veh, CUX1 / RFU, TTC7A / Fold change vs veh, TTC7A / RFU, TMEM135 / Fold change vs veh, TMEM135 / RFU, DEPTOR / Fold change vs veh, DEPTOR / RFU, CPM / Fold change vs veh, CPM / RFU, DNAJB6 / Fold change vs veh, DNAJB6 / RFU, CACNA2D3 / Fold change vs veh, CACNA2D3 / RFU, DTX4 / Fold change vs veh, DTX4 / RFU, TFCP2 / Fold change vs veh, TFCP2 / RFU, GMCL1 /// GMCL1P1 / Fold change vs veh, GMCL1 /// GMCL1P1 / RFU, AEBP2 / Fold change vs veh, AEBP2 / RFU, SNHG1 /// SNORD22 /// SNORD25 /// SNORD26 /// SNORD27 /// SNORD28 /// SNORD29 /// SNORD31 / Fold change vs veh, SNHG1 /// SNORD22 /// SNORD25 /// SNORD26 /// SNORD27 /// SNORD28 /// SNORD29 /// SNORD31 / Fold change (Aza/veh), C12orf56 (ProbeSet 11735607_a_at) / Fold change (ACY-1035/veh), C12orf56 (ProbeSet 11735607_a_at) / Fold change (Aza/veh), FGFR1OP (ProbeSet 11751329_s_at) / Fold change (ACY-1035/veh), FGFR1OP (ProbeSet 11751329_s_at) / Fold change (Aza/veh), VPS36 (ProbeSet 11739960_a_at) / Fold change (ACY-1035/veh), VPS36 (ProbeSet 11739960_a_at) / RFU SYPL1 (11715823_x_at) / Fold change /veh SYPL1 (11715823_x_at) / RFU IGFBP7 (11715501_s_at) / Fold change /veh IGFBP7 (11715501_s_at) / RFU REEP3 (11722064_at) / Fold change /veh REEP3 (11722064_at) / RFU IGLL1 (11728026_x_at) / Fold change /veh IGLL1 (11728026_x_at): dose or concentration left out as unconfirmed
# Details: MV-4-11 cells, 48 hours
smiles,measurement,value
Nc1ncn([C@@H]2O[C@H](CO)[C@@H](O)[C@H]2O)c(=O)n1 [azacitidine],Fold change /veh RNFT2 (11725882_a_at),1.12
